Measured values as given in ChEMBL document CHEMBL3885881, “DrugMatrix”.

Organism: Rattus norvegicus
Test: DrugMatrix - Regimen: Daily Repeat
Type: toxicity, organism-based, Sprague-Dawley
Design: regimen Daily Repeat, gender Male, age 6-8 weeks
Settings: in vivo, po, 170 mg/kg, route oral GAVAGE, dose level Low, vehicle .5 % CMC; for ABSOLUTE BASOPHIL / ABSOLUTE EOSINOPHIL / ABSOLUTE LYMPHOCYTE / ABSOLUTE MONOCYTE / ABSOLUTE SEGMENTED NEUTROPHIL / BASOPHIL / EOSINOPHIL / ERYTHROCYTE COUNT / HEMATOCRIT / HEMOGLOBIN / LEUKOCYTE COUNT / LYMPHOCYTE / MEAN CORPUSCULAR HEMOGLOBIN / MEAN CORPUSCULAR HEMOGLOBIN CONCENTRATION / MEAN CORPUSCULAR VOLUME / MONOCYTE / NEUTROPHIL / NUCLEATED RED BLOOD CELLS / PLATELET COUNT: tissue Blood; for ALANINE AMINOTRANSFERASE / ALBUMIN / ALKALINE PHOSPHATASE / ASPARTATE AMINOTRANSFERASE / BLOOD UREA NITROGEN / CARBON DIOXIDE / CHLORIDE / CHOLESTEROL / CREATINE PHOSPHOKINASE / CREATININE / GLUCOSE / LACTATE DEHYDROGENASE / LIPASE / PHOSPHORUS / POTASSIUM / SODIUM / TOTAL BILIRUBIN / TOTAL PROTEIN / URIC ACID: tissue Plasma

O=C(O)c1ccccc1 [BENZOIC ACID]
ABSOLUTE BASOPHIL (72 h, time 3 day): 0 CELLS/uL | ABSOLUTE EOSINOPHIL (72 h, time 3 day): 0 CELLS/uL | ABSOLUTE LYMPHOCYTE (72 h, time 3 day): 11616 CELLS/uL | ABSOLUTE MONOCYTE (72 h, time 3 day): 0 CELLS/uL | ABSOLUTE SEGMENTED NEUTROPHIL (72 h, time 3 day): 1417.33 CELLS/uL | BASOPHIL (72 h, time 3 day): 0% | EOSINOPHIL (72 h, time 3 day): 0% | ERYTHROCYTE COUNT (72 h, time 3 day): 5.44 x10E6/uL | HEMATOCRIT (72 h, time 3 day): 34.03% | HEMOGLOBIN (72 h, time 3 day): 13.07 G/DL | LEUKOCYTE COUNT (72 h, time 3 day): 13.03 x10E3/uL | LYMPHOCYTE (72 h, time 3 day): 89.33% | MEAN CORPUSCULAR HEMOGLOBIN (72 h, time 3 day): 24.03 pg | MEAN CORPUSCULAR HEMOGLOBIN CONCENTRATION (72 h, time 3 day): 38.4 G/DL | MEAN CORPUSCULAR VOLUME (72 h, time 3 day): 62.6 fL | MONOCYTE (72 h, time 3 day): 0% | NEUTROPHIL (72 h, time 3 day): 10.67% | NUCLEATED RED BLOOD CELLS (72 h, time 3 day): 0 /100WBC | PLATELET COUNT (72 h, time 3 day): 1319.33 x10E3/uL | ALANINE AMINOTRANSFERASE (72 h, time 3 day): 59.67 u/L | ALBUMIN (72 h, time 3 day): 4.13 G/DL | ALKALINE PHOSPHATASE (72 h, time 3 day): 380 u/L | ASPARTATE AMINOTRANSFERASE (72 h, time 3 day): 88 u/L | BLOOD UREA NITROGEN (72 h, time 3 day): 17 mg/dL | CARBON DIOXIDE (72 h, time 3 day): 29.33 mmol/L | CHLORIDE (72 h, time 3 day): 100.67 MEQ/L | CHOLESTEROL (72 h, time 3 day): 99 mg/dL | CREATINE PHOSPHOKINASE (72 h, time 3 day): 286 u/L | CREATININE (72 h, time 3 day): 0.23 mg/dL | GLUCOSE (72 h, time 3 day): 150 mg/dL | LACTATE DEHYDROGENASE (72 h, time 3 day): 280 u/L | LIPASE (72 h, time 3 day): 10 u/L | PHOSPHORUS (72 h, time 3 day): 13.27 mg/dL | POTASSIUM (72 h, time 3 day): 6.52 MEQ/L | SODIUM (72 h, time 3 day): 146.37 MEQ/L | TOTAL BILIRUBIN (72 h, time 3 day): 0.17 mg/dL | TOTAL PROTEIN (72 h, time 3 day): 5.97 G/DL | URIC ACID (72 h, time 3 day): 1.6 mg/dL | ABSOLUTE BASOPHIL (120 h, time 5 day): 0 CELLS/uL | ABSOLUTE EOSINOPHIL (120 h, time 5 day): 64 CELLS/uL | ABSOLUTE LYMPHOCYTE (120 h, time 5 day): 17040 CELLS/uL | ABSOLUTE MONOCYTE (120 h, time 5 day): 0 CELLS/uL | ABSOLUTE SEGMENTED NEUTROPHIL (120 h, time 5 day): 1696 CELLS/uL | BASOPHIL (120 h, time 5 day): 0% | EOSINOPHIL (120 h, time 5 day): 0.33% | ERYTHROCYTE COUNT (120 h, time 5 day): 5.48 x10E6/uL | HEMATOCRIT (120 h, time 5 day): 35.33% | HEMOGLOBIN (120 h, time 5 day): 13.8 G/DL | LEUKOCYTE COUNT (120 h, time 5 day): 18.8 x10E3/uL | LYMPHOCYTE (120 h, time 5 day): 90.67% | MEAN CORPUSCULAR HEMOGLOBIN (120 h, time 5 day): 25.23 pg | MEAN CORPUSCULAR HEMOGLOBIN CONCENTRATION (120 h, time 5 day): 39.07 G/DL | MEAN CORPUSCULAR VOLUME (120 h, time 5 day): 64.5 fL | MONOCYTE (120 h, time 5 day): 0% | NEUTROPHIL (120 h, time 5 day): 9% | NUCLEATED RED BLOOD CELLS (120 h, time 5 day): 0 /100WBC | PLATELET COUNT (120 h, time 5 day): 1165 x10E3/uL | ALANINE AMINOTRANSFERASE (120 h, time 5 day): 57.33 u/L | ALBUMIN (120 h, time 5 day): 4.23 G/DL | ALKALINE PHOSPHATASE (120 h, time 5 day): 352 u/L | ASPARTATE AMINOTRANSFERASE (120 h, time 5 day): 96.67 u/L | BLOOD UREA NITROGEN (120 h, time 5 day): 15.67 mg/dL | CARBON DIOXIDE (120 h, time 5 day): 24 mmol/L | CHLORIDE (120 h, time 5 day): 103.67 MEQ/L | CHOLESTEROL (120 h, time 5 day): 79 mg/dL | CREATINE PHOSPHOKINASE (120 h, time 5 day): 445 u/L | CREATININE (120 h, time 5 day): 0.21 mg/dL | GLUCOSE (120 h, time 5 day): 164.67 mg/dL | LACTATE DEHYDROGENASE (120 h, time 5 day): 554.67 u/L | LIPASE (120 h, time 5 day): 9.67 u/L | PHOSPHORUS (120 h, time 5 day): 12.87 mg/dL | POTASSIUM (120 h, time 5 day): 6.28 MEQ/L | SODIUM (120 h, time 5 day): 144.9 MEQ/L | TOTAL BILIRUBIN (120 h, time 5 day): 0.23 mg/dL | TOTAL PROTEIN (120 h, time 5 day): 6.17 G/DL | URIC ACID (120 h, time 5 day): 2.2 mg/dL
